Test results as given in patent US20060079550A1, “Amino acid derivatives useful for the treatment of alzheimer's disease” (priority 2001, published 2006).

molecular target: aspartyl proteases, in particular, beta-secretase; test: Ki of the compounds listed in Tables 1 and 2 (no method described); assay type: biochemical; settings: not given

First: Cc1ccc(S(=O)(=O)N(CC(C)C)C(CNCCNC(=O)CCc2ccccc2)C(=O)O)cc1 [Compound No. 206, (2R,2S)-2-[N-isobutyl-N-(4-methylbenzenesulfonyl)]-3-[2′-(N′-dihydrocinnamoyl)ethylamino]-propionic Acid]
Second: CC(C)CN([C@@H](CCCCNC(=O)OCC1c2ccccc2-c2ccccc21)C(=O)O)S(=O)(=O)c1ccc(C(C)(C)C)cc1 [Compound No. 10, Nα-isobutyl-Nα-(4-tert-butylbenzenesulfonyl)-Nε-(9-fluorenylmethoxycarbonyl)-L-lysine]
The Ki of the first is higher: > 300 nM for the first, 257 nM for the second.

same assay, conditions: Table 1, compounds of formula Ia, W is -(CH2)n-

`COc1cccc(C=CC(=O)NCCCC[C@@H](C(=O)O)N(CC(C)C)S(=O)(=O)c2ccc([N+](=O)[O-])cc2)c1` [Compound No. 162, Nα-isobutyl-Nα-(4-nitrobenzenesulfonyl)-Nε-(3-methoxycinnamoyl)-L-lysine] and `COc1ccccc1/C=C/C(=O)NCCCC[C@@H](C(=O)O)N(CC(C)C)S(=O)(=O)c1ccc([N+](=O)[O-])cc1` [Compound No. 161, Nα-isobutyl-Nα-(4-nitrobenzenesulfonyl)-Nε-(trans-2-methoxycinnamoyl)-L-lysine] cannot be ordered by Ki: > 300 nM for the first, > 300 nM for the second.

First: O=C(NCCCC[C@H](NS(=O)(=O)c1ccccc1[N+](=O)[O-])C(=O)O)OCC1c2ccccc2-c2ccccc21 [Compound No. 107, Nα-(2-nitrobenzenesulfonyl)-Nε-(9-fluorenylmethoxycarbonyl)-L-lysine]
Second: O=C(N[C@@H](CCCCNS(=O)(=O)c1ccccc1Br)C(=O)O)OCC1c2ccccc2-c2ccccc21 [Compound No. 24, Nε-(2-bromobenzenesulfonyl)-Nα-(9-fluorenylmcthoxycarbonyl)-L-lysine]
The Ki of the first is 9.1-fold lower: 3970 nM for the first, 36000 nM for the second. The first binds more tightly here.

First: COc1cccc(C=CC(=O)NCCCC[C@@H](C(=O)O)N(CC(C)C)S(=O)(=O)c2ccc([N+](=O)[O-])cc2)c1OC [compound 110, Nα-isobutyl-Nα-(4-nitrobenzenesulfonyl)-Nε-(2,3-dimethoxycinnamoyl)-L-lysine]
Second: COc1cccc(CCC(=O)NCCCC[C@@H](C(=O)O)N(CC(C)C)S(=O)(=O)c2ccc(N)cc2)c1OC [Compound No. 119, Nα-isobutyl-Nα-(4-aminobenzenesulfonyl)-Nε-(2,3-dimethoxydihydrocinnamoyl)-L-lysine]
The Ki of the first is higher: > 300 nM for the first, 6.2 nM for the second.

Going from `Cc1ccc(S(=O)(=O)N(CC(C)C)[C@@H](CCCCNC(=O)c2c[nH]c3ccccc23)C(=O)O)cc1` [compound 87] to `Cc1ccc(S(=O)(=O)N(CC(C)C)[C@@H](CCCCNC(=O)CCc2c[nH]c3ccccc23)C(=O)O)cc1` [compound 89], the Ki falls from > 1250 nM to 6.9 nM. The second binds more tightly here.

Compared with `O=C(N[C@@H](CCCCNS(=O)(=O)Cc1ccccc1)C(=O)O)OCC1c2ccccc2-c2ccccc21` [Compound No. 33, Nε-phenylmethylsulfonyl-Nα-(9-fluorenylmethoxycarbonyl)-L-lysine], `O=C(N[C@@H](CCCCNS(=O)(=O)c1ccc(Cl)cc1)C(=O)O)OCC1c2ccccc2-c2ccccc21` [Compound No. 53, Nε-(4-chlorobenzenesulfonyl)-Nα-(9-fluorenylmethoxycarbonyl)-L-lysine] is 4.2-fold lower in Ki: 20000 nM for the first, 4800 nM for the second. The second binds more tightly here.

`O=C(N[C@@H](CCCCNS(=O)(=O)c1cccc(C(F)(F)F)c1)C(=O)O)OCC1c2ccccc2-c2ccccc21` [Compound No. 34, Nε-(3-trifluoromethylbenzenesulfonyl)-Nα-(9-fluorenylmethoxycarbonyl)-L-lysine] and `O=C(N[C@@H](CCCNS(=O)(=O)c1ccc([N+](=O)[O-])cc1)C(=O)O)OCC1c2ccccc2-c2ccccc21` [Compound No. 62, Nδ-(4-nitrobenzenesulfonyl)-Nα-(9-fluorenylmethoxycarbonyl)-L-ornithine] are within 1.5-fold of each other in Ki: 22000 nM for the first, 26200 nM for the second.

Compared with `Cc1ccc(S(=O)(=O)N(CC(C)C)[C@@H](CCCCNC(=O)C(c2ccccc2)c2ccccc2)C(=O)O)cc1` [compound 86], `Cc1ccc(S(=O)(=O)N(CC(C)C)[C@@H](CCCCNC(=O)CC2c3ccccc3-c3ccccc32)C(=O)O)cc1` [compound 84] is 1.9-fold lower in Ki: 171 nM for the first, 89.7 nM for the second.

First: O=C(O)[C@H](CCCCN(Cc1ccc(F)cc1)S(=O)(=O)c1ccc(Br)cc1)NS(=O)(=O)c1ccc(Br)cc1 [Compound No. 60, Nα,Nε-di-(4-bromobenzenesulfonyl)-Nε-(4-fluorobenzyl)-L-lysine]
Second: O=C(O)[C@H](CCCCNS(=O)(=O)c1ccc(Br)cc1)NS(=O)(=O)c1ccc(Br)cc1 [Compound No. 17, Nα,Nε-di-(4-bromobenzenesulfonyl)-L-lysine]
The Ki of the first is higher: > 50000 nM for the first, 7700 nM for the second.

First: COc1ccccc1CCC(=O)NCCCC[C@@H](C(=O)O)N(CC(C)C)S(=O)(=O)c1ccc(N)cc1 [Compound No. 157, Nα-isobutyl-Nα-(4-aminobenzenesulfonyl)-Nε-(2-methoxydihydrocinnamoyl)-L-lysine]
Second: CC(C)CN([C@@H](CCCCNC(=O)CCc1ccccc1N)C(=O)O)S(=O)(=O)c1ccc(N)cc1 [Compound No. 122, Nα-isobutyl-Nα-(4-aminobenzenesulfonyl)-Nε-(2-aminodihydrocinnamoyl)-L-lysine]
The Ki of the first is lower: 18.9 nM for the first, > 300 nM for the second.

`O=C(O)[C@H](CCCNS(=O)(=O)c1ccc(Br)cc1)NS(=O)(=O)c1ccc(Br)cc1` [Compound No. 57, Nα,Nε-di-(4-bromobenzenesulfonyl)-L-ornithine] and `CC(C)CN([C@@H](CCCCNS(=O)(=O)c1ccc([N+](=O)[O-])cc1)C(=O)O)S(=O)(=O)c1ccc([N+](=O)[O-])cc1` [compound 116, Nα-isobutyl-Nα,Nε-di-(4-nitrobenzenesulfonyl)-L-lysine] cannot be ordered by Ki: 42400 nM for the first, > 300 nM for the second.

Going from `CC(C)CN([C@@H](CCCCNC(=O)CCc1ccc2c(c1)OCO2)C(=O)O)S(=O)(=O)c1ccc(N)cc1` [Compound No. 155, Nα-isobutyl-Nα-(4-aminobenzenesulfonyl)-Nε-(3,4-methylenedioxydihydrocinnamoyl)-L-lysine] to `CC(C)CN([C@@H](CCCCNC(=O)CCCc1ccccc1)C(=O)O)S(=O)(=O)c1ccc(N)cc1` [Compound No. 121, Nα-isobutyl-Nα-(4-aminobenzenesulfonyl)-Nε-(4-phenylbutanoyl)-L-lysine], the Ki rises from 15.7 nM to > 300 nM. The first binds more tightly here.

`O=C(NCCC[C@H](NC(=O)OCC1c2ccccc2-c2ccccc21)C(=O)O)OCC1c2ccccc2-c2ccccc21` [Compound No. 73, NαNδ-di-(9-fluorenylmethoxycarbonyl)-L-ornithine] and `CC(C)CN(C(=O)c1ccccc1)[C@@H](CCCCNC(=O)OCC1c2ccccc2-c2ccccc21)C(=O)O` [Compound No. 46, Nα-isobutyl-Nα-benzoyl-Nε-(9-fluorenylmethoxycarbonyl)-Llysine] cannot be ordered by Ki: 1300 nM for the first, > 100 nM for the second.

`CC(C)CN([C@@H](CCCCNC(=O)CCc1c[nH]c2ccccc12)C(=O)O)S(=O)(=O)c1ccc([N+](=O)[O-])cc1` [Compound No. 95, Nα-isobutyl-Nα-(4-nitrobenzenesulfonyl)-Nε-(3-indolepropionyl)-L-lysine] and `CC(C)CN([C@@H](CCCCNC(=O)CCc1ccccc1)C(=O)O)S(=O)(=O)c1ccc([N+](=O)[O-])cc1` [Compound No. 94, Nα-isobutyl-Nα-(4-nitrobenzenesulfonyl)-Nε-dihydrocinnamoyl-L-lysine] are within 1.5-fold of each other in Ki: 33.4 nM for the first, 33.9 nM for the second.

Going from `CC(C)CN([C@@H](CCCCNC(=O)COc1ccccc1)C(=O)O)S(=O)(=O)c1ccc([N+](=O)[O-])cc1` [Compound No. 160, Nα-isobutyl-Nα-(4-nitrobenzenesulfonyl)-Nε-phenoxyacetyl-L-lysine] to `CC(C)CN(C(CCCCNC(=O)OCc1ccccc1)C(=O)O)S(=O)(=O)c1ccc(I)cc1` (racemic) [Compound No. 48, Nα-isobutyl-Nα-(4-iodobenzenesulfonyl)-Nε-benzyloxycarbonyl-DL-lysine], the Ki rises from 24.5 nM to > 100 nM.

Going from `CC(C)CN([C@@H](CCCCNC(=O)OCC1c2ccccc2-c2ccccc21)C(=O)O)S(=O)(=O)c1ccc(Br)cc1` [Compound No. 4, Nα-isobutyl-Nα-(4-bromobenzenesulfonyl)-Nε-(9-fluorenylmethoxycarbonyl)-L-lysine] to `Cc1ccc(S(=O)(=O)N(CC(C)C)C(CCCNC(=O)OCC2c3ccccc3-c3ccccc32)C(=O)O)cc1` (racemic) [Compound No. 6, Nα-isobutyl-Nα-(4-methylbenzenesulfonyl)-Nδ-(9-fluorenylmethoxycarbonyl)-DL-ornithine], the Ki rises from 11.4 nM to 180 nM (16-fold). The first binds more tightly here.

`Cc1ccc(S(=O)(=O)N(CC(C)C)[C@@H](CCCCNC(=O)c2cc3ccccc3[nH]2)C(=O)O)cc1` [compound 88] and `Cc1ccc(S(=O)(=O)N(CC(C)C)C(CCCCN(CC(C)C)C(=O)CCc2ccccc2)C(=O)O)cc1` (racemic) [Compound No. 159, Nα,Nε-diisobutyl-Nα-(4-methylbenzenesulfonyl)-Nε-(3-phenylpropanoyl)-DL-lysine] cannot be ordered by Ki: > 625 nM for the first, > 300 nM for the second.

First: Cc1ccc(S(=O)(=O)N(CC2CC2)[C@@H](CCCCNC(=O)OCC2c3ccccc3-c3ccccc32)C(=O)O)cc1 [Compound No. 43, Nα-cyclopropylmethyl-Nα-(4-methylbenzenesulfonyl)-Nε-(9-fluorenylmethoxycarbonyl)-L-lysine]
Second: Cc1ccc(S(=O)(=O)N(Cc2ccccc2)[C@@H](CCCCNC(=O)OCC2c3ccccc3-c3ccccc32)C(=O)O)cc1 [Compound No. 40, Nα-benzyl-Nα-(4-methylbenzenesulfonyl)-Nε-(9-fluorenylmethoxycarbonyl)-L-lysine]
The Ki of the first is 5-fold lower: 3.9 nM for the first, 19.6 nM for the second.

`Cc1cc(C)c(S(=O)(=O)N(CC(C)C)[C@@H](CCCCNC(=O)OCC2c3ccccc3-c3ccccc32)C(=O)O)c(C)c1` [Compound No. 42, Nα-isobutyl-Nα-(2,4,6-trimethylbenzenesulfonyl)-Nε-(9-fluorenylmethoxycarbonyl)-L-lysine] and `COC(=O)[C@H](CCCCNC(=O)OCC1c2ccccc2-c2ccccc21)N(CC(C)C)S(=O)(=O)c1ccc(C)cc1` [Compound No. 123, Nα-isobutyl-Nα-(4-methylbenzenesulfonyl)-Nε-(9-fluorenylmethoxycarbonyl)-L-lysine Methyl Ester] cannot be ordered by Ki: > 100 nM for the first, > 300 nM for the second.

With `NC(=O)C(CCCCNS(=O)(=O)c1ccc(Br)cc1)NC(=O)OCC1c2ccccc2-c2ccccc21` [Compound No. 20, (2R,2S)-(9-fluorenylmethoxycarbonylamino)-6-(4-bromobenzenesulfonylamino)-1-hexanamide] the Ki was 23000 nM.
